Laboratory results as given in ChEMBL document CHEMBL5154757, “Phosphodiesters as GPR84 Antagonists for the Treatment of Ulcerative Colitis” (J Med Chem, 2022).
Blank lines part the entries; values can stand above or below the molecule they belong to.

Columns and labels:
[1] = biological target: G-protein coupled receptor 84 (Homo sapiens, UniProt Q9NQS5); experiment: Antagonist activity at human GPR84 expressed in HEK293 cells co-expressing Galpha16 assessed as reduction in 6-OAU induced intracellular calcium response preincubated for 10 mins followed by agonist addition and measured after 1 min by calcium mobilization assay; assay type: functional, cell-based
[2] = MRT in CD-1 mouse at 2 mg/kg, iv administered as single dose measured upto 24 hrs by LC-MS/MS analysis; assay type: ADME, organism-based; details: in vivo
[3] = Clearance in CD-1 mouse at 2 mg/kg, iv administered as single dose measured upto 24 hrs by LC-MS/MS analysis; assay type: ADME, organism-based; details: in vivo
[4] = Half life in CD-1 mouse at 5 mg/kg, po administered as single dose measured upto 24 hrs by LC-MS/MS analysis; assay type: ADME, organism-based; details: in vivo
[5] = biological target: G-protein coupled receptor 84 (Mus musculus, UniProt Q8CIM5); experiment: Antagonist activity at mouse GPR84 expressed in HEK293 cells assessed as reduction in 6-OAU induced intracellular calcium response preincubated for 10 mins followed by agonist addition and measured after 1 min by calcium mobilization assay; assay type: functional, cell-based
[6] = Half life in CD-1 mouse at 2 mg/kg, iv administered as single dose measured upto 24 hrs by LC-MS/MS analysis; assay type: ADME, organism-based; details: in vivo
[7] = Volume of distribution at steady state in CD-1 mouse at 2 mg/kg, iv administered as single dose measured upto 24 hrs by LC-MS/MS analysis; assay type: ADME, organism-based; details: in vivo, read-out: Vdss
[8] = MRT in CD-1 mouse at 5 mg/kg, po administered as single dose measured upto 24 hrs by LC-MS/MS analysis; assay type: ADME, organism-based; details: in vivo
[9] = AUC(0 to infinity) in CD-1 mouse at 2 mg/kg, iv administered as single dose measured upto 24 hrs by LC-MS/MS analysis; assay type: ADME, organism-based; design: time < 24 hrs, dose 2 mg/kg, route iv; details: in vivo
[10] = AUC(0 to infinity) in CD-1 mouse at 5 mg/kg, po administered as single dose measured upto 24 hrs by LC-MS/MS analysis; assay type: ADME, organism-based; design: time < 24 hrs, dose 5 mg/kg, route po; details: in vivo
[11] = Tmax in CD-1 mouse at 5 mg/kg, po administered as single dose measured upto 24 hrs by LC-MS/MS analysis; assay type: ADME, organism-based; details: in vivo
[12] = Cmax in CD-1 mouse at 5 mg/kg, po administered as single dose measured upto 24 hrs by LC-MS/MS analysis; assay type: ADME, organism-based; design: time < 24 hrs, dose 5 mg/kg, route po; details: in vivo
[13] = Oral bioavailability in CD-1 mouse at 5 mg/kg administered as single dose measured upto 24 hrs by LC-MS/MS analysis; assay type: ADME, organism-based; details: in vivo
[14] = biological target: G-protein coupled receptor 84 (Mus musculus) (UniProt Q8CIM5); experiment: Antagonist activity at GPR84 expressed in mouse bone marrow cells assessed as reduction in 6-OAU/3-OH-C12 induced migration in monocytes incubated for 90 mins by flow cytometry; assay type: functional, cell-based; details: Bone marrow cell, filed as antagonist, dose 0.01-1 µM, DDE = dose-dependent effect
[15] = biological target: G-protein coupled receptor 84 (Mus musculus) (UniProt Q8CIM5); experiment: Antagonist activity at GPR84 expressed in mouse bone marrow cells assessed as reduction in 3-OH-C12 induced migration in neutrophils incubated for 90 mins by flow cytometry; assay type: functional, cell-based; details: Bone marrow cell, filed as antagonist, dose 0.01-1 µM, DDE = dose-dependent effect
[16] = biological target: G-protein coupled receptor 84 (Mus musculus) (UniProt Q8CIM5); experiment: Antagonist activity at GPR84 expressed in mouse bone marrow cells assessed as reduction in 6-OAU induced migration in neutrophils incubated for 90 mins by flow cytometry; assay type: functional, cell-based; details: Bone marrow cell, filed as antagonist, dose 0.01-1 µM, DDE = dose-dependent effect
[17] = biological target: G-protein coupled receptor 84 (Mus musculus) (UniProt Q8CIM5); experiment: Antagonist activity at GPR84 expressed in mouse bone marrow cells assessed as reduction in 3-OH-C12 induced migration in monocytes incubated for 90 mins by flow cytometry; assay type: functional, cell-based; details: Bone marrow cell, filed as antagonist, dose 0.01-1 µM, DDE = dose-dependent effect
Mus musculus [18] = experiment: Anti-colitis activity against DSS-induced ulcerative colitis mouse model assessed as attenuation of rectal bleeding administered orally once daily for 7 consecutive days; assay type: functional, organism-based; details: dose 25-100 mg/kg, route po, DDE = dose-dependent effect
Mus musculus [19] = experiment: Anti-colitis activity against DSS-induced ulcerative colitis mouse model assessed as attenuation of weight loss administered orally once daily for 7 consecutive days; assay type: functional, organism-based; details: dose 25-100 mg/kg, route po, DDE = dose-dependent effect
[20] = Drug distribution in DSS-induced ulcerative colitis mouse jejunum at 5 mg/kg, po administered as single dose measured upto 8 hrs by LC-MS/MS analysis; assay type: ADME, organism-based; details: in vivo
[21] = Drug distribution in C57 mouse liver at 3 mg/kg, iv administered as single dose measured upto 8 hrs by LC-MS/MS analysis; assay type: ADME, organism-based; details: in vivo
[22] = Mutagenecity in Salmonella typhimurium TA98 in absence of S9 fraction at 1000 ug by Ames test; assay type: toxicity, Salmonella enterica subsp. enterica serovar Typhimurium; details: in vivo; dose 1000 µg
[23] = Mutagenecity in Salmonella typhimurium TA100 in presence of S9 fraction at 1000 ug by Ames test; assay type: toxicity, subcellular, Salmonella enterica subsp. enterica serovar Typhimurium; details: dose 1000 µg
[24] = Drug distribution in C57 mouse colon at 5 mg/kg, po administered as single dose measured upto 8 hrs by LC-MS/MS analysis; assay type: ADME, organism-based; details: in vivo
Mus musculus [25] = experiment: Anti-colitis activity against DSS-induced ulcerative colitis mouse model assessed as attenuation of stool thinning administered orally once daily for 7 consecutive days; assay type: functional, organism-based; details: dose 25-100 mg/kg, route po, DDE = dose-dependent effect
[26] = Mutagenecity in Salmonella typhimurium TA98 in presence of S9 fraction at 1000 ug by Ames test; assay type: toxicity, subcellular, Salmonella enterica subsp. enterica serovar Typhimurium; details: dose 1000 µg
[27] = Drug distribution in DSS-induced ulcerative colitis mouse colon at 5 mg/kg, po administered as single dose measured upto 8 hrs by LC-MS/MS analysis; assay type: ADME, organism-based; details: in vivo
[28] = Mutagenecity in Salmonella typhimurium TA100 in absence of S9 fraction at 1000 ug by Ames test; assay type: toxicity, Salmonella enterica subsp. enterica serovar Typhimurium; details: in vivo; dose 1000 µg
[29] = Drug distribution in C57 mouse jejunum at 5 mg/kg, po administered as single dose measured upto 8 hrs by LC-MS/MS analysis; assay type: ADME, organism-based; details: in vivo
Bone marrow cell = experiment: Cytotoxicity against bone marrow cells (unknown origin) assessed as inhibition of cell growth upto 10 uM measured after 1.5 to 2 hrs by ATPlite assay; assay type: toxicity, cell-based; details: time 1.5-2 hrs
[30] = Drug distribution in C57 mouse ileum at 5 mg/kg, po administered as single dose measured upto 8 hrs by LC-MS/MS analysis; assay type: ADME, organism-based; details: in vivo
Mus musculus [31] = experiment: Anti-colitis activity against DSS-induced ulcerative colitis mouse model assessed as reduction in DAI score administered orally once daily for 7 consecutive days; assay type: functional, organism-based; details: dose 25-100 mg/kg, route po, DDE = dose-dependent effect
HEK293 = experiment: Cytotoxicity against HEK293 cells assessed as inhibition of cell growth upto 100 uM measured after 24 hrs by ATPlite assay; assay type: toxicity, cell-based; details: human, hek293, 24 h
[32] = Drug distribution in C57 mouse duodenum at 5 mg/kg, po administered as single dose measured upto 8 hrs by LC-MS/MS analysis; assay type: ADME, organism-based; details: in vivo

G-protein coupled receptor 84 (Mus musculus), sequence (Q8CIM5 whole entry): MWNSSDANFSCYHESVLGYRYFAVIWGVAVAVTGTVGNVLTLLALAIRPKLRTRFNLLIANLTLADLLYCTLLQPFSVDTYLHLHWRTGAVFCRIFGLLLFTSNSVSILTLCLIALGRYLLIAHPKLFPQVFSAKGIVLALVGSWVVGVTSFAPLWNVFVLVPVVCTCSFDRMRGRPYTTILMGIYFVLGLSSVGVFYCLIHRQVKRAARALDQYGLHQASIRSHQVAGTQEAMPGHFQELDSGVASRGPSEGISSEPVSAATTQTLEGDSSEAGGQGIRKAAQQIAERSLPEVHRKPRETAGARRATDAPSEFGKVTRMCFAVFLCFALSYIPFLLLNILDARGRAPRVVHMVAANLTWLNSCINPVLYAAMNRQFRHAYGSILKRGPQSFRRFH
G-protein coupled receptor 84 (Homo sapiens, UniProt Q9NQS5), sequence (Q9NQS5 whole entry): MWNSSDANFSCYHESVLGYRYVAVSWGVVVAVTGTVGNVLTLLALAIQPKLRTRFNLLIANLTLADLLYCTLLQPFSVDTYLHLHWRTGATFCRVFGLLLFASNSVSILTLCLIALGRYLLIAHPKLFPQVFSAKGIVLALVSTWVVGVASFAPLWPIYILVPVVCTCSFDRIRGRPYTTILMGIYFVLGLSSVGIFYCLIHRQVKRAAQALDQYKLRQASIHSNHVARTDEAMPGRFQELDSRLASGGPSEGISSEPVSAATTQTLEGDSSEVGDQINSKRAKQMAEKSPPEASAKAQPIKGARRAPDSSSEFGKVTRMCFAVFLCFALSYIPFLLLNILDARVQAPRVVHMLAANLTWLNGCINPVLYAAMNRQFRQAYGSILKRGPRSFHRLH
G-protein coupled receptor 84 (Mus musculus, UniProt Q8CIM5), sequence (Q8CIM5 whole entry): as the sequence (Q8CIM5 whole entry) above

Compound: COP(=O)(OC1=Cc2ccccc2Sc2ccccc21)OC1=Cc2ccccc2Sc2ccccc21
- IC50 [1]: > 100000 nM

Compound: O=P(O)(O)OC1=Cc2ccccc2Sc2ccccc21
- IC50 [1]: > 100000 nM

Compound: O=P(O)(Oc1ccccc1)Oc1ccccc1
- IC50 [1]: > 100000 nM

Compound: O=P([O-])(OC1=Cc2c(Cl)cccc2Sc2ccccc21)OC1=Cc2c(Cl)cccc2Sc2ccccc21.[Na+]
- MRT [2]: 2.26 h
- Activity (Mus musculus [18]): Dde
- Activity [14]: Dde
- Activity (Mus musculus [19]): Dde
- Drug uptake [20]: Active
- Activity [15]: Dde
- Drug uptake [21]: Active
- Activity [22]: Non-Toxic
- Activity [23]: Non-Toxic
- Drug uptake [24]: Active
- clearance [3]: 20.3 mL/min/kg
- Activity (Mus musculus [25]): Dde
- half-life [4]: 4.39 h
- IC50 [5]: 273 nM
- Activity [26]: Non-Toxic
- half-life [6]: 5.12 h
- Drug uptake [27]: Active
- Vd [7]: 2.98 L/kg
- Activity [28]: Non-Toxic
- MRT [8]: 7.09 h
- Drug uptake [29]: Active
- AUC(0-inf) [9]: 1710 ng·h/mL
- Activity (Bone marrow cell): Non-Toxic
- Drug uptake [30]: Active
- Activity (Mus musculus [31]): Dde
- Activity (HEK293): Non-Toxic
- AUC(0-inf) [10]: 517 ng·h/mL
- Tmax [11]: 2.67 h
- Activity [16]: Dde
- Cmax [12]: 81.8 ng/mL
- Drug uptake [32]: Active
- bioavailability [13]: 11.9%
- Activity [17]: Dde

Compound: O=c1nc(OCC2COCCO2)cc2n1CCc1cc(OCc3ccccn3)ccc1-2 (stereo unspecified)
- IC50 [1]: 716 nM

Compound: COc1cccc2c1Sc1ccccc1C=C2OP(=O)([O-])OC1=Cc2ccccc2Sc2c(OC)cccc21.[Na+]
- MRT [2]: 1.82 h
- clearance [3]: 7.5 mL/min/kg
- half-life [4]: 4.99 h
- half-life [6]: 5.59 h
- Vd [7]: 0.8 L/kg
- MRT [8]: 7.41 h
- AUC(0-inf) [9]: 4640 ng·h/mL
- AUC(0-inf) [10]: 236 ng·h/mL
- Tmax [11]: 1 h
- Cmax [12]: 43.6 ng/mL
- bioavailability [13]: 2.3%

The remaining lines, values ahead:

- MRT [2]: 0.932 h
- clearance [3]: 23.7 mL/min/kg
- half-life [4]: 1.62 h
- IC50 [5]: 454 nM
- half-life [6]: 1.14 h
- Vd [7]: 1.31 L/kg
- MRT [8]: 4.05 h
- AUC(0-inf) [9]: 1420 ng·h/mL
- AUC(0-inf) [10]: 562 ng·h/mL
- Tmax [11]: 1.67 h
- Cmax [12]: 192 ng/mL
- bioavailability [13]: 15.7%
Compound: O=P([O-])(OC1=Cc2ccccc2Sc2ccccc21)OC1=Cc2ccccc2Sc2ccccc21.[Na+]

- Activity [14]: Dde
- Activity [15]: Dde
- Activity [16]: Dde
- Activity [17]: Dde
Compound: O=c1nc(OC[C@@H]2COCCO2)cc2n1CCc1cc(C#CC3CC3)ccc1-2

- MRT [2]: 1.89 h
- clearance [3]: 4.33 mL/min/kg
- half-life [4]: 1.91 h
- half-life [6]: 5.75 h
- Vd [7]: 0.5 L/kg
- MRT [8]: 2.21 h
- AUC(0-inf) [9]: 7760 ng·h/mL
- AUC(0-inf) [10]: 178 ng·h/mL
- Tmax [11]: 0.42 h
- Cmax [12]: 74.3 ng/mL
- bioavailability [13]: 0.91%
Compound: COc1cccc2c1Sc1cccc(F)c1C=C2OP(=O)([O-])OC1=Cc2c(F)cccc2Sc2c(OC)cccc21.[Na+]

- IC50 [1]: 1930 nM
Compound: O=P(O)(CC1=Cc2ccccc2Sc2ccccc21)CC1=Cc2ccccc2Sc2ccccc21
